Laboratory results reported in ChEMBL document CHEMBL3044670, “Aromatic sulfonyl hydrazides and sulfonyl hydrazones: antimicrobial activity and physical properties” (2013).
≈ marks a conversion by molar mass, not a printed value.

How the values were obtained:
Escherichia coli [1] = assay: Antibacterial activity against Escherichia coli ATCC 25922 at 140 ug/disk after 18 to 24 hr by disk diffusion method; format: functional; settings: read-out: DIZ
Klebsiella pneumoniae [2] = assay: Antibacterial activity against Klebsiella pneumoniae ATCC 13883 at 140 ug/disk after 18 to 24 hr by disk diffusion method; format: functional; settings: read-out: DIZ
Pseudomonas fluorescens [3] = assay: Antibacterial activity against Pseudomonas fluorescens ATCC 49838 at 140 ug/disk after 18 to 24 hr by disk diffusion method; format: functional; settings: read-out: DIZ
Klebsiella aerogenes [4] = assay: Antibacterial activity against Enterobacter aerogenes ATCC 13048 at 140 ug/disk after 18 to 24 hr by disk diffusion method; format: functional; settings: read-out: DIZ
[5] = system: Staphylococcus epidermidis; assay: Antibacterial activity against Staphylococcus epidermidis ATCC 12228 at 140 ug/disk after 18 to 24 hr by disk diffusion method; format: functional; settings: read-out: DIZ
Bacillus subtilis [6] = assay: Antibacterial activity against Bacillus subtilis ATCC 6633 at 140 ug/disk after 18 to 24 hr by disk diffusion method; format: functional; settings: read-out: DIZ
Enterococcus faecalis [7] = assay: Antibacterial activity against Enterococcus faecalis ATCC 29212 at 140 ug/disk after 18 to 24 hr by disk diffusion method; format: functional; settings: read-out: DIZ
Bacillus cereus [8] = assay: Antibacterial activity against Bacillus cereus ATCC 11778 at 140 ug/disk after 18 to 24 hr by disk diffusion method; format: functional; settings: read-out: DIZ
Staphylococcus aureus [9] = assay: Antibacterial activity against Staphylococcus aureus ATCC 25923 at 140 ug/disc after 18 to 24 hr by disk diffusion method; format: functional; settings: read-out: DIZ
Candida albicans [10] = assay: Antifungal activity against Candida albicans ATCC 90028 after 18 to 24 hr by broth microdilution method; format: functional
Pseudomonas aeruginosa [11] = assay: Antibacterial activity against Pseudomonas aeruginosa ATCC 27853 after 18 to 24 hr by broth microdilution method; format: functional
Escherichia coli [12] = assay: Antibacterial activity against Escherichia coli ATCC 25922 after 18 to 24 hr by broth microdilution method; format: functional
Klebsiella pneumoniae [13] = assay: Antibacterial activity against Klebsiella pneumoniae ATCC 13883 after 18 to 24 hr by broth microdilution method; format: functional
Pseudomonas fluorescens [14] = assay: Antibacterial activity against Pseudomonas fluorescens ATCC 49838 after 18 to 24 hr by broth microdilution method; format: functional
Klebsiella aerogenes [15] = assay: Antibacterial activity against Enterobacter aerogenes ATCC 13048 after 18 to 24 hr by broth microdilution method; format: functional
[16] = system: Staphylococcus epidermidis; assay: Antibacterial activity against Staphylococcus epidermidis ATCC 12228 after 18 to 24 hr by broth microdilution method; format: functional
Enterococcus faecalis [17] = assay: Antibacterial activity against Enterococcus faecalis ATCC 29212 after 18 to 24 hr by broth microdilution method; format: functional
Bacillus cereus [18] = assay: Antibacterial activity against Bacillus cereus ATCC 11778 after 18 to 24 hr by broth microdilution method; format: functional
Staphylococcus aureus [19] = assay: Antibacterial activity against Staphylococcus aureus ATCC 25923 after 18 to 24 hr by broth microdilution method; format: functional
Candida albicans [20] = assay: Antifungal activity against Candida albicans ATCC 90028 at 140 ug/disk after 18 to 24 hr by disk diffusion method; format: functional; settings: read-out: DIZ
Pseudomonas aeruginosa [21] = assay: Antibacterial activity against Pseudomonas aeruginosa ATCC 27853 at 140 ug/disk after 18 to 24 hr by disk diffusion method; format: functional; settings: read-out: DIZ
Bacillus subtilis [22] = assay: Antibacterial activity against Bacillus subtilis ATCC 6633 after 18 to 24 hr by broth microdilution method; format: functional
Bacillus subtilis [23] = assay: Antibacterial activity against Bacillus subtilis ATCC 6633 at 30 ug/disk after 18 to 24 hr by disk diffusion method; format: functional
Bacillus cereus [24] = assay: Antibacterial activity against Bacillus cereus ATCC 11778 at 30 ug/disk after 18 to 24 hr by disk diffusion method; format: functional
Enterococcus faecalis [25] = assay: Antibacterial activity against Enterococcus faecalis ATCC 29212 at 30 ug/disk after 18 to 24 hr by disk diffusion method; format: functional
Staphylococcus aureus [26] = assay: Antibacterial activity against Staphylococcus aureus ATCC 25923 at 30 ug/disk after 18 to 24 hr by disk diffusion method; format: functional
Candida albicans [27] = assay: Antifungal activity against Candida albicans ATCC 90028 at 30 ug/disk after 18 to 24 hr by disk diffusion method; format: functional
Pseudomonas aeruginosa [28] = assay: Antibacterial activity against Pseudomonas aeruginosa ATCC 27853 at 30 ug/disk after 18 to 24 hr by disk diffusion method; format: functional
Escherichia coli [29] = assay: Antibacterial activity against Escherichia coli ATCC 25922 at 30 ug/disk after 18 to 24 hr by disk diffusion method; format: functional
Klebsiella pneumoniae [30] = assay: Antibacterial activity against Klebsiella pneumoniae ATCC 13883 at 30 ug/disk after 18 to 24 hr by disk diffusion method; format: functional
Klebsiella aerogenes [31] = assay: Antibacterial activity against Enterobacter aerogenes ATCC 13048 at 30 ug/disk after 18 to 24 hr by disk diffusion method; format: functional
Pseudomonas fluorescens [32] = assay: Antibacterial activity against Pseudomonas fluorescens ATCC 49838 at 30 ug/disk after 18 to 24 hr by disk diffusion method; format: functional
[33] = system: Staphylococcus epidermidis; assay: Antibacterial activity against Staphylococcus epidermidis ATCC 12228 at 30 ug/disk after 18 to 24 hr by disk diffusion method; format: functional
Pseudomonas aeruginosa [34] = assay: Antibacterial activity against Pseudomonas aeruginosa ATCC 27853 at 40 ug/disk after 18 to 24 hr by disk diffusion method; format: functional; settings: read-out: DIZ
Escherichia coli [35] = assay: Antibacterial activity against Escherichia coli ATCC 25922 at 40 ug/disk after 18 to 24 hr by disk diffusion method; format: functional; settings: read-out: DIZ
Pseudomonas fluorescens [36] = assay: Antibacterial activity against Pseudomonas fluorescens ATCC 49838 at 40 ug/disk after 18 to 24 hr by disk diffusion method; format: functional; settings: read-out: DIZ
Klebsiella pneumoniae [37] = assay: Antibacterial activity against Klebsiella pneumoniae ATCC 13883 at 40 ug/disk after 18 to 24 hr by disk diffusion method; format: functional; settings: read-out: DIZ
Staphylococcus aureus [38] = assay: Antibacterial activity against Staphylococcus aureus ATCC 25923 at 40 ug/disc after 18 to 24 hr by disk diffusion method; format: functional; settings: read-out: DIZ
Bacillus cereus [39] = assay: Antibacterial activity against Bacillus cereus ATCC 11778 at 40 ug/disk after 18 to 24 hr by disk diffusion method; format: functional; settings: read-out: DIZ
Enterococcus faecalis [40] = assay: Antibacterial activity against Enterococcus faecalis ATCC 29212 at 40 ug/disk after 18 to 24 hr by disk diffusion method; format: functional; settings: read-out: DIZ
Bacillus subtilis [41] = assay: Antibacterial activity against Bacillus subtilis ATCC 6633 at 40 ug/disk after 18 to 24 hr by disk diffusion method; format: functional; settings: read-out: DIZ
[42] = system: Staphylococcus epidermidis; assay: Antibacterial activity against Staphylococcus epidermidis ATCC 12228 at 40 ug/disk after 18 to 24 hr by disk diffusion method; format: functional; settings: read-out: DIZ
Klebsiella aerogenes [43] = assay: Antibacterial activity against Enterobacter aerogenes ATCC 13048 at 40 ug/disk after 18 to 24 hr by disk diffusion method; format: functional; settings: read-out: DIZ
Candida albicans [44] = assay: microbe, parasite or virus in culture; settings: ATCC 90028, read-out: DIZ
Description: Antifungal activity against Candida albicans ATCC 90028 at 40 ug/disk after 18 to 24 hr by disk diffusion method

Compound | zone of inhibition at 140 µg/disc (Escherichia coli [1]) | zone of inhibition at 140 µg/disc (Klebsiella pneumoniae [2]) | zone of inhibition at 140 µg/disc (Pseudomonas fluorescens [3]) | zone of inhibition at 140 µg/disc (Klebsiella aerogenes [4]) | zone of inhibition at 140 µg/disc [5] | zone of inhibition at 140 µg/disc (Bacillus subtilis [6]) | zone of inhibition at 140 µg/disc (Enterococcus faecalis [7]) | zone of inhibition at 140 µg/disc (Bacillus cereus [8]) | zone of inhibition at 140 µg/disc (Staphylococcus aureus [9]) | MIC (Candida albicans [10]) | MIC (Pseudomonas aeruginosa [11]) | MIC (Escherichia coli [12]) | MIC (Klebsiella pneumoniae [13]) | MIC (Pseudomonas fluorescens [14]) | MIC (Klebsiella aerogenes [15]) | MIC [16] | MIC (Enterococcus faecalis [17]) | MIC (Bacillus cereus [18]) | MIC (Staphylococcus aureus [19]) | zone of inhibition at 140 µg/disc (Candida albicans [20]) | other results
O=S(=O)(NCCO)c1ccccc1 | 0 mm | 0 mm | 0 mm | 0 mm | 0 mm | 0 mm | 0 mm | 0 mm | 0 mm | 1000 µg/mL (≈ 4.97 mM) | 1000 µg/mL (≈ 4.97 mM) | 1000 µg/mL (≈ 4.97 mM) | 1000 µg/mL (≈ 4.97 mM) | 1000 µg/mL (≈ 4.97 mM) | 1000 µg/mL (≈ 4.97 mM) | > 2000 µg/mL | > 2000 µg/mL | > 2000 µg/mL | > 2000 µg/mL | 0 mm | zone of inhibition at 140 µg/disc (Pseudomonas aeruginosa [21]): 0 mm; MIC (Bacillus subtilis [22]): 1000 µg/mL (≈ 4.97 mM)
NCC(O)CNS(=O)(=O)c1ccccc1 (stereo not given) | 0 mm | 0 mm | 0 mm | 0 mm | 0 mm | 0 mm | 0 mm | 0 mm | 0 mm | 1000 µg/mL (≈ 4.34 mM) | 1000 µg/mL (≈ 4.34 mM) | 1000 µg/mL (≈ 4.34 mM) | > 2000 µg/mL | 1000 µg/mL (≈ 4.34 mM) | 1000 µg/mL (≈ 4.34 mM) | > 2000 µg/mL | > 2000 µg/mL | > 2000 µg/mL | > 2000 µg/mL | 0 mm | zone of inhibition at 140 µg/disc (Pseudomonas aeruginosa [21]): 0 mm; MIC (Bacillus subtilis [22]): > 2000 µg/mL
C/C(=N\N(C)S(=O)(=O)c1ccccc1)c1ccccc1O | 11 mm | 6 mm | 11 mm | 5 mm | 12 mm | 9 mm | 9 mm | 10 mm | 10 mm | 500 µg/mL (≈ 1.64 mM) | 1000 µg/mL (≈ 3.29 mM) | 1000 µg/mL (≈ 3.29 mM) | 1000 µg/mL (≈ 3.29 mM) | 1000 µg/mL (≈ 3.29 mM) | 1000 µg/mL (≈ 3.29 mM) | 500 µg/mL (≈ 1.64 mM) | 1000 µg/mL (≈ 3.29 mM) | 500 µg/mL (≈ 1.64 mM) | 500 µg/mL (≈ 1.64 mM) | 12 mm | zone of inhibition at 140 µg/disc (Pseudomonas aeruginosa [21]): 5 mm; MIC (Bacillus subtilis [22]): 500 µg/mL (≈ 1.64 mM)
NYSTATIN | – | – | – | – | – | – | – | – | – | 0.125 µg/mL | – | – | – | – | – | – | – | – | – | – | inhibition zone (IZ) (Bacillus subtilis [23]): 0 mm; inhibition zone (IZ) (Bacillus cereus [24]): 0 mm; inhibition zone (IZ) (Enterococcus faecalis [25]): 0 mm; inhibition zone (IZ) (Staphylococcus aureus [26]): 0 mm; inhibition zone (IZ) (Candida albicans [27]): 18 mm; inhibition zone (IZ) (Pseudomonas aeruginosa [28]): 0 mm; inhibition zone (IZ) (Escherichia coli [29]): 0 mm; inhibition zone (IZ) (Klebsiella pneumoniae [30]): 0 mm; inhibition zone (IZ) (Klebsiella aerogenes [31]): 0 mm; inhibition zone (IZ) (Pseudomonas fluorescens [32]): 0 mm; inhibition zone (IZ) [33]: 0 mm
Clc1ccc(COC(Cn2ccnc2)c2ccc(Cl)cc2Cl)c(Cl)c1 (stereo not given) [MICONAZOLE] | – | – | – | – | – | – | – | – | – | 0.15 µg/mL (≈ 0.00036 mM) | – | – | – | – | – | – | – | – | – | – | zone of inhibition at 40 µg/disc (Pseudomonas aeruginosa [34]): 0 mm; zone of inhibition at 40 µg/disc (Escherichia coli [35]): 0 mm; zone of inhibition at 40 µg/disc (Pseudomonas fluorescens [36]): 0 mm; zone of inhibition at 40 µg/disc (Klebsiella pneumoniae [37]): 0 mm; zone of inhibition at 40 µg/disc (Staphylococcus aureus [38]): 0 mm; zone of inhibition at 40 µg/disc (Bacillus cereus [39]): 0 mm; zone of inhibition at 40 µg/disc (Enterococcus faecalis [40]): 0 mm; zone of inhibition at 40 µg/disc (Bacillus subtilis [41]): 0 mm; zone of inhibition at 40 µg/disc [42]: 0 mm; zone of inhibition at 40 µg/disc (Klebsiella aerogenes [43]): 0 mm; zone of inhibition at 40 µg/disc (Candida albicans [44]): 26 mm
